Laboratory results as given in ChEMBL document CHEMBL1201862, “PubChem BioAssay data set” (2004).
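In this assay, cells in 96-well plates receive the compound at five concentrations for 48 hours. Endpoints are linearly interpolated between the surrounding concentrations. At the GI50, growth is halved.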 The source made the active and inactive calls. Rule as the data show it: active = GI50 up to about 1.1 µM and inactive = higher.

What was measured:
Assay in all cases: NCI anticancer screen, dose series, 48 h
SK-MEL-2 = system: SK-MEL-2
T47D = system: T47D
NCI-H23 = system: NCI-H23
BT-549 = system: BT-549
COLO 205 = system: COLO 205
EKVX = system: EKVX
SN12C = system: SN12C
MDA-MB-435 = system: MDA-MB-435
ACHN = system: ACHN
MCF7 = system: MCF7
A498 = system: A498
HOP-92 = system: HOP-92
OVCAR-4 = system: OVCAR-4
SK-MEL-5 = system: SK-MEL-5
Hs-578T = system: Hs-578T
SF-295 = system: SF-295
MDA-N = system: MDA-N
KM12 = system: KM12
HCT-116 = system: HCT-116
NCI/ADR-RES = system: NCI/ADR-RES

Measured: GI50

CC1=C(C(=O)OC(C)(C)C)C(c2ccc([N+](=O)[O-])cc2)C(C(=O)OC(C)(C)C)=C(C)N1
inactive: SK-MEL-2 28.6 µM | T47D 14.7 µM | NCI-H23 19.6 µM | BT-549 28 µM | COLO 205 22.6 µM | EKVX 18.5 µM | SN12C 19.8 µM | MDA-MB-435 27.9 µM | ACHN 21.4 µM | MCF7 16.6 µM | A498 22.8 µM | HOP-92 15.4 µM | OVCAR-4 20.7 µM | SK-MEL-5 18.2 µM | Hs-578T 20.2 µM | SF-295 20.2 µM | MDA-N 25.5 µM | KM12 20.7 µM | HCT-116 20.5 µM

CCN(CC)CCCn1c(=O)c2ccccc2n2c3c(=O)n(C)c(=O)n(C)c3nc12
inactive: SK-MEL-2 18.3 µM | T47D 17.1 µM | NCI-H23 4.67 µM | BT-549 2.47 µM | COLO 205 5.09 µM | EKVX 15 µM | SN12C 2.85 µM | MDA-MB-435 14.2 µM | ACHN 1.34 µM | NCI/ADR-RES 13.2 µM | MCF7 4.76 µM | HOP-92 3.9 µM | OVCAR-4 6.95 µM | SK-MEL-5 2.22 µM | Hs-578T 14 µM | SF-295 3.43 µM | MDA-N 14.2 µM | KM12 4.63 µM | HCT-116 4.65 µM

CCC1(CC)C(=O)NN(C(=O)c2ccccc2)C1=O
inactive: SK-MEL-2 > 100 µM | T47D > 100 µM | NCI-H23 > 100 µM | BT-549 > 100 µM | COLO 205 > 100 µM | EKVX > 100 µM | SN12C > 100 µM | MDA-MB-435 > 100 µM | ACHN > 100 µM | NCI/ADR-RES > 100 µM | MCF7 > 100 µM | OVCAR-4 > 100 µM | SK-MEL-5 > 100 µM | Hs-578T > 100 µM | SF-295 > 100 µM | MDA-N > 100 µM | KM12 6.49 µM | HCT-116 > 100 µM

CCOC(=O)Nc1nn[nH]c1Cl
inactive: SK-MEL-2 > 100 µM | T47D > 100 µM | NCI-H23 > 100 µM | BT-549 > 100 µM | COLO 205 > 100 µM | EKVX > 100 µM | SN12C > 100 µM | MDA-MB-435 > 100 µM | NCI/ADR-RES > 100 µM | MCF7 > 100 µM | A498 > 100 µM | OVCAR-4 > 100 µM | SK-MEL-5 > 100 µM | Hs-578T > 100 µM | MDA-N > 100 µM | KM12 63 µM | HCT-116 > 100 µM

CCOC(=O)/C=C(/C(=O)OCC)n1ccc(=O)n(Cc2cn(CCCCOC(C)=O)nn2)c1=O
inactive: SK-MEL-2 > 100 µM | T47D > 100 µM | NCI-H23 > 100 µM | BT-549 > 100 µM | COLO 205 31.8 µM | EKVX > 100 µM | SN12C > 100 µM | MDA-MB-435 > 100 µM | ACHN 40.3 µM | NCI/ADR-RES > 100 µM | MCF7 60.3 µM | HOP-92 6.65 µM | OVCAR-4 > 100 µM | SK-MEL-5 > 100 µM | Hs-578T > 100 µM | SF-295 > 100 µM | MDA-N > 100 µM | KM12 > 100 µM | HCT-116 > 100 µM

CC(CO)(CO)N1C(=O)C2C3c4ccccc4C(c4ccccc43)C2C1=O (stereo unspecified)
inactive: SK-MEL-2 > 100 µM | T47D > 100 µM | NCI-H23 > 100 µM | BT-549 80.9 µM | COLO 205 > 100 µM | SN12C > 100 µM | MDA-MB-435 > 100 µM | ACHN > 100 µM | NCI/ADR-RES > 100 µM | MCF7 > 100 µM | A498 64 µM | SK-MEL-5 > 100 µM | Hs-578T > 100 µM | SF-295 > 100 µM | MDA-N > 100 µM | KM12 > 100 µM | HCT-116 > 100 µM

O=c1[nH]c2cc3cccnc3c(Cl)c2nc1CBr
inactive: T47D 5.89 µM | NCI-H23 15 µM | BT-549 26.5 µM | COLO 205 13.8 µM | EKVX 16.1 µM | SN12C 14 µM | MDA-MB-435 16 µM | ACHN 7.4 µM | NCI/ADR-RES 20 µM | MCF7 10.1 µM | HOP-92 14.1 µM | OVCAR-4 19.3 µM | SK-MEL-5 17.5 µM | Hs-578T 13.1 µM | SF-295 21.6 µM | MDA-N 15.6 µM | KM12 15.5 µM | HCT-116 11.7 µM

O=C(Cn1c2ccc(Br)cc2c2nc3ccccc3nc21)NC1CCCCC1
inactive: SK-MEL-2 > 100 µM | T47D 60.4 µM | NCI-H23 > 100 µM | BT-549 > 100 µM | COLO 205 > 100 µM | SN12C > 100 µM | MDA-MB-435 > 100 µM | ACHN > 100 µM | NCI/ADR-RES > 100 µM | A498 > 100 µM | HOP-92 51.1 µM | OVCAR-4 > 100 µM | SK-MEL-5 > 100 µM | Hs-578T 43.3 µM | SF-295 > 100 µM | MDA-N > 100 µM | KM12 > 100 µM | HCT-116 > 100 µM

Clc1nc(NCCc2ccccc2)c2ncn(-c3ccccc3)c2n1
inactive: SK-MEL-2 1.83 µM | T47D 23.4 µM | NCI-H23 25.6 µM | BT-549 23.1 µM | COLO 205 23.2 µM | EKVX 22.5 µM | SN12C 27.5 µM | MDA-MB-435 16.3 µM | ACHN 29.4 µM | NCI/ADR-RES 20.6 µM | MCF7 24.9 µM | A498 17.3 µM | OVCAR-4 14.1 µM | SK-MEL-5 18.5 µM | Hs-578T 24.4 µM | SF-295 25.3 µM | MDA-N 18.5 µM | KM12 16.8 µM | HCT-116 22 µM

O=c1[nH]nc(Cc2ccccc2)n1/N=C/c1cccs1
inactive: SK-MEL-2 > 100 µM | T47D > 100 µM | NCI-H23 > 100 µM | BT-549 > 100 µM | COLO 205 > 100 µM | EKVX > 100 µM | SN12C > 100 µM | MDA-MB-435 > 100 µM | ACHN > 100 µM | NCI/ADR-RES > 100 µM | MCF7 > 100 µM | A498 16 µM | OVCAR-4 > 100 µM | Hs-578T > 100 µM | SF-295 > 100 µM | MDA-N > 100 µM | KM12 > 100 µM | HCT-116 > 100 µM

Cc1cc(N(CCC#N)CCC#N)ccc1C(/N=N/c1ccc(C(=O)O)cc1)=N\NC(=O)c1ccccc1
inactive: SK-MEL-2 > 100 µM | T47D 43.8 µM | NCI-H23 17.7 µM | BT-549 55.6 µM | COLO 205 28.5 µM | EKVX > 100 µM | SN12C 47.3 µM | MDA-MB-435 3.94 µM | ACHN 59.7 µM | NCI/ADR-RES 66.8 µM | MCF7 22.8 µM | A498 22.3 µM | OVCAR-4 > 100 µM | SK-MEL-5 19.5 µM | Hs-578T 14.4 µM | SF-295 23.9 µM | MDA-N 4.31 µM | KM12 18.2 µM | HCT-116 35 µM
